# Results published in ChEMBL document CHEMBL1130909, “General construction pattern of histamine H3-receptor antagonists: change of a paradigm” (Bioorg Med Chem Lett, 1998).
# Molecular target: Histamine H3 receptor (Rattus norvegicus, UniProt Q9QYN8)
# Test: In vitro Histamine H3 receptor antagonist activity in an assay with K+-evoked depolarization-induced release of [3H]histamine from synaptosomes of rat cerebral cortex
# Assay type: functional, subcellular, Brain
# Chain of Histamine H3 receptor (Q9QYN8 whole entry): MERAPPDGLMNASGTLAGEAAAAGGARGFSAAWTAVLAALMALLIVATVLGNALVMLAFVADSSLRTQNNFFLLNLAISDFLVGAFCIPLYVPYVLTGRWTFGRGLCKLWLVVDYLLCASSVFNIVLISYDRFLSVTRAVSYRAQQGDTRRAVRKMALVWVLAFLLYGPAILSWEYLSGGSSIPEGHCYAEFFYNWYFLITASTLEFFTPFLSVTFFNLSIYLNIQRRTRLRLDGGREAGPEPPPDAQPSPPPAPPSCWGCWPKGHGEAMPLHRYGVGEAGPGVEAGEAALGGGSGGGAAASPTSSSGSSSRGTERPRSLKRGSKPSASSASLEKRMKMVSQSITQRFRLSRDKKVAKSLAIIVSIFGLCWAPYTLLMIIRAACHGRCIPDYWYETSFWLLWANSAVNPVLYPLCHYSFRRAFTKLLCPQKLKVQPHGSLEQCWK
row,Ki,SMILES
1,400 nM,CCCCCCCCCc1c[nH]cn1
2,> 500 nM,CCCCCCC/C=C\c1c[nH]cn1

row,SMILES,Ki
1,C(=C\CCc1c[nH]cn1)/CCc1ccccc1,42 nM
